Activity calls are given as the source filed them. The rule behind the calls is not given here.
Experiments:
MV4-11 [1] = test: Induction of apoptosis in human MV4-11 cells assessed as healthy cells at 1 uM measured after 6 hrs by annexin V-FITC/PI staining based FACS assay (reference value: 63.50%); format: functional
MV4-11 [2] = test: Induction of apoptosis in human MV4-11 cells assessed as healthy cells at 4 uM measured after 6 hrs by annexin V-FITC/PI staining based FACS assay (reference value: 63.50%); format: functional
[3] = target: Histone deacetylase 2 (Mus musculus) (UniProt P70288); test: Inhibition of HDAC2 in mouse C2C12 cells at 5 uM incubated for 72 hrs by immunofluorescence analysis; format: cell-based
Histone deacetylase 2 [4] = target: T1, Histone deacetylase 2 (Homo sapiens, UniProt Q92769); test: Binding affinity to recombinant full length HDAC2 catalytic domain Cys274 (unknown origin) assessed as formation of single covalent adduct at 50 uM incubated for 2 hrs by trypsin-digest protein mapping analysis
Histone deacetylase 1 = Histone deacetylase 1 (Homo sapiens, UniProt Q13547); test: Inhibition of HDAC1 (unknown origin) using 6-carboxyfluorescein peptide as substrate preincubated with compound followed by substrate addition by electrophoretic mobility shift assay
Histone deacetylase 2 [5] = target: T1, Histone deacetylase 2; test: Inhibition of HDAC2 (unknown origin) using 6-carboxyfluorescein peptide as substrate preincubated with compound followed by substrate addition by electrophoretic mobility shift assay
Histone deacetylase 2 [6] = target: T1, Histone deacetylase 2; test: Inhibition of HDAC2 (unknown origin) using 6-carboxyfluorescein peptide as substrate preincubated with compound for 6 hrs followed by substrate addition by electrophoretic mobility shift assay
Histone deacetylase 3 = Histone deacetylase 3 (Homo sapiens, UniProt O15379); test: Inhibition of full length recombinant human HDAC3 expressed in Sf9 cells using 6-carboxyfluorescein peptide as substrate preincubated with compound for 6 hrs followed by substrate addition and measured after 3 hrs by electrophoretic mobility shift assay; format: cell-based
Histone deacetylase 8 = target: T2, Histone deacetylase 8 (Homo sapiens, UniProt Q9BY41); test: Inhibition of full length recombinant human HDAC8 expressed in Sf9 cells using 6-carboxyfluorescein peptide as substrate preincubated with compound followed by substrate addition and measured after 3 hrs by electrophoretic mobility shift assay
T2 sequence (Q9BY41 whole entry): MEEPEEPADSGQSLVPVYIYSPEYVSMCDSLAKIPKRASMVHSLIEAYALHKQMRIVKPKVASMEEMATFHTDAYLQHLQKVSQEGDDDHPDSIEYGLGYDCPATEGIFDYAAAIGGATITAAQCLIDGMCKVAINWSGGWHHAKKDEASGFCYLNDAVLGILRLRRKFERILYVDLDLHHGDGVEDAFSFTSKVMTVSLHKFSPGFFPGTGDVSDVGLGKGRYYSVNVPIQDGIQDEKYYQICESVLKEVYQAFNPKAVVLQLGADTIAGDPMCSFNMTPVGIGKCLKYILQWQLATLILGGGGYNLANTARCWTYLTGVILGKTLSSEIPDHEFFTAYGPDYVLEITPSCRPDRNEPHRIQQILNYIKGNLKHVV

Histone deacetylase 4 = Histone deacetylase 4 (Homo sapiens, UniProt P56524); test: Inhibition of HDAC4 (unknown origin) using 6-carboxyfluorescein peptide as substrate preincubated with compound for 6 hrs followed by substrate addition by electrophoretic mobility shift assay
Histone deacetylase 5 = Histone deacetylase 5 (Homo sapiens, UniProt Q9UQL6); test: Inhibition of HDAC5 (unknown origin) using 6-carboxyfluorescein peptide as substrate preincubated with compound for 6 hrs followed by substrate addition by electrophoretic mobility shift assay
[7] = target: T3, Protein deacetylase HDAC6 (Homo sapiens, UniProt Q9UBN7); test: Inhibition of full length recombinant human HDAC6 expressed in Sf9 cells using 6-carboxyfluorescein peptide as substrate preincubated with compound for 6 hrs followed by substrate addition and measured after 5 hrs by electrophoretic mobility shift assay
T3 sequence (Q9UBN7 whole entry): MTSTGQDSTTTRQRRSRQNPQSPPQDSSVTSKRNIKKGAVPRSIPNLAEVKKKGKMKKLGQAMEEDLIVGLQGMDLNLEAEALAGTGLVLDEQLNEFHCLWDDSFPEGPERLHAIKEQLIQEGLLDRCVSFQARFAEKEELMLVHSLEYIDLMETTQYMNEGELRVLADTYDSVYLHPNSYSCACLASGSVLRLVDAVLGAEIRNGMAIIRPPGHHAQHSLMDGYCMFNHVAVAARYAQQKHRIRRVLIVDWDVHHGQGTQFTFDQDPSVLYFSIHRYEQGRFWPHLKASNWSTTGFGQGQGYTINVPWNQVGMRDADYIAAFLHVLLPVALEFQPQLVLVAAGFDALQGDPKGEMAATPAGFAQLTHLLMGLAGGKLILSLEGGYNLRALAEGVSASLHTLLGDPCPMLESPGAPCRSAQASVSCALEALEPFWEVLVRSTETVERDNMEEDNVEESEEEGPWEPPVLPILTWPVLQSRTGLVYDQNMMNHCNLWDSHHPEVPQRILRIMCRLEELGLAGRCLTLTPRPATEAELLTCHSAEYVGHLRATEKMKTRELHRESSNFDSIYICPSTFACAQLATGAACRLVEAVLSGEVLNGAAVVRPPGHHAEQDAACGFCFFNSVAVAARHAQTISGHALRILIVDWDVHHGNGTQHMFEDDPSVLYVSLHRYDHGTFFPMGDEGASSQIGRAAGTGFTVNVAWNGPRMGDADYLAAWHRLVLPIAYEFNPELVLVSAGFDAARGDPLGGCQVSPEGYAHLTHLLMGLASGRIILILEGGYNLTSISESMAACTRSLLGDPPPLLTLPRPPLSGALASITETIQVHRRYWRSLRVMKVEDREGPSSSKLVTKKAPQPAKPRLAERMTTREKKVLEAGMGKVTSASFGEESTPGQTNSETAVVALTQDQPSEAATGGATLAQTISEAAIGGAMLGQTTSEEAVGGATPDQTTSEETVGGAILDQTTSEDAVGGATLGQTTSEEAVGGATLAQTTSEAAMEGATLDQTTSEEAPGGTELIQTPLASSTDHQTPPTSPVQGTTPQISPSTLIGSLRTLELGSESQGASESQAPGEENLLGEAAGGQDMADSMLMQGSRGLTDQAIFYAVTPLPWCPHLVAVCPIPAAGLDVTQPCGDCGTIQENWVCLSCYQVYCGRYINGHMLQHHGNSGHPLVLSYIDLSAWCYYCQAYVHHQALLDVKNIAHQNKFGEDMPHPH

Histone deacetylase 11 = target: T4, Histone deacetylase 11 (Homo sapiens, UniProt Q96DB2); test: Inhibition of full length recombinant human HDAC11 expressed in Sf9 cells using 6-carboxyfluorescein peptide as substrate preincubated with compound for 6 hrs followed by substrate addition and measured after 17 hrs by electrophoretic mobility shift assay
T4 sequence (Q96DB2 whole entry): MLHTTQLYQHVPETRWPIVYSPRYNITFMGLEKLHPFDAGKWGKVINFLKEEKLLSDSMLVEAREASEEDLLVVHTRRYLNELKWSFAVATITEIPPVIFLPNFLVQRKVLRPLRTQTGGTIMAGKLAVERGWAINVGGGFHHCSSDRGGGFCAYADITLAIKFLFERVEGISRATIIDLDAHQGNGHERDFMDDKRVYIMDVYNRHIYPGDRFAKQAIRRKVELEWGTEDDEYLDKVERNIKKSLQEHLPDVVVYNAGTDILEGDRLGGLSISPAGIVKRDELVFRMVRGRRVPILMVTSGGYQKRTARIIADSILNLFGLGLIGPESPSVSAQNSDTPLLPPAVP

T1 sequence (Q92769 whole entry, the tested form may be a part): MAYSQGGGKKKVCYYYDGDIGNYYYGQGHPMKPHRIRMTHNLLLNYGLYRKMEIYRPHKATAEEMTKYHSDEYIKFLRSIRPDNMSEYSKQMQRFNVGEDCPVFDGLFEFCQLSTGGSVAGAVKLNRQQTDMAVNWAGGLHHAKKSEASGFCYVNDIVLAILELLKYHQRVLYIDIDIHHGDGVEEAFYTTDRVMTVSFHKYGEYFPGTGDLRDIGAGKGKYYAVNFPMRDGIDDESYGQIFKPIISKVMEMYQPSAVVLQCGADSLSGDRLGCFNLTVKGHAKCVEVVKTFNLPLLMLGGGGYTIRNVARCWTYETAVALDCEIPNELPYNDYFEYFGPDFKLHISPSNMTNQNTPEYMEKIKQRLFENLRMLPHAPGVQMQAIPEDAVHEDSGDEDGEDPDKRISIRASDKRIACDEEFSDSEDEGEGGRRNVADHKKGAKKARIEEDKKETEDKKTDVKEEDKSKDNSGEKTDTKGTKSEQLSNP
Chain of Histone deacetylase 3 (O15379 whole entry): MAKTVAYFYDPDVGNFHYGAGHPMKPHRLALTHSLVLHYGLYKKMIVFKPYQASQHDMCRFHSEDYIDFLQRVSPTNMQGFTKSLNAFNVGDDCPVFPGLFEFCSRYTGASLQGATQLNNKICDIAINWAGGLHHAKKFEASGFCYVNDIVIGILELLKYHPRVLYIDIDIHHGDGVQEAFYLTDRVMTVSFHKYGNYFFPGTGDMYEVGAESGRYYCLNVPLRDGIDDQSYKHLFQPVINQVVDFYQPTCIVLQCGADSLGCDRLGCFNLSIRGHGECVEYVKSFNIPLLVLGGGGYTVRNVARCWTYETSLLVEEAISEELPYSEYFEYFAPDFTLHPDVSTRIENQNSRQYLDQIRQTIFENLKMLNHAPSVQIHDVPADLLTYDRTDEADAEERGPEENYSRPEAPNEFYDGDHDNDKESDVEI
Chain of Histone deacetylase 5 (Q9UQL6 whole entry): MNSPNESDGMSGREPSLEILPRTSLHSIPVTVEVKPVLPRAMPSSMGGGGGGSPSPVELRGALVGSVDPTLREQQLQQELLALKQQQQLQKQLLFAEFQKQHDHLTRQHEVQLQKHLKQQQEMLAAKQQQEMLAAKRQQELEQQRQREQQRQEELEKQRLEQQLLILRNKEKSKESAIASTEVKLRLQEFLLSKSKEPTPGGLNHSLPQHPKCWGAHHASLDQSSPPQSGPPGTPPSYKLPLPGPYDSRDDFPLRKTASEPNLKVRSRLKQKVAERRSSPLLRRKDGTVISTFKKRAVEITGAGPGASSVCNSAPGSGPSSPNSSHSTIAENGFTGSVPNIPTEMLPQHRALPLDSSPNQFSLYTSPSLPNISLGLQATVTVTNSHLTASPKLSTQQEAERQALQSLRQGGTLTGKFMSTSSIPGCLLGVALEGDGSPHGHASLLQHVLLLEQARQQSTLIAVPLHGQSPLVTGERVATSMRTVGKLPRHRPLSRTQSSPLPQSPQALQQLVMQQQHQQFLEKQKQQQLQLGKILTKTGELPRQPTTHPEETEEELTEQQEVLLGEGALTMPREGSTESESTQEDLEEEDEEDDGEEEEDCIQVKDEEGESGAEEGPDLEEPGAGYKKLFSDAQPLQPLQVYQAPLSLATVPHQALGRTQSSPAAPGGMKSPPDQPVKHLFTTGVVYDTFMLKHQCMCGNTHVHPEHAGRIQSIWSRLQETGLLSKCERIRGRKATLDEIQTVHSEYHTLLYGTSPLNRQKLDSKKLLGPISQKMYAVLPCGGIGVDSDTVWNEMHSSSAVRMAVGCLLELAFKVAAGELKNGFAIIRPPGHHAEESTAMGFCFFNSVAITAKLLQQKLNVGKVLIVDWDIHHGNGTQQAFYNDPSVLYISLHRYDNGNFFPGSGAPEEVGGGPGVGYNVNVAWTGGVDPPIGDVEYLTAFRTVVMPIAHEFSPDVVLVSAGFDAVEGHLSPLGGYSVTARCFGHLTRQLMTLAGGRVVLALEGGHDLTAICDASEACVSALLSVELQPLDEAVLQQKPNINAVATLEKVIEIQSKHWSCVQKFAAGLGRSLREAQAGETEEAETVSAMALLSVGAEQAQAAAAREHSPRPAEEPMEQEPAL
Chain of Histone deacetylase 1 (Q13547 whole entry): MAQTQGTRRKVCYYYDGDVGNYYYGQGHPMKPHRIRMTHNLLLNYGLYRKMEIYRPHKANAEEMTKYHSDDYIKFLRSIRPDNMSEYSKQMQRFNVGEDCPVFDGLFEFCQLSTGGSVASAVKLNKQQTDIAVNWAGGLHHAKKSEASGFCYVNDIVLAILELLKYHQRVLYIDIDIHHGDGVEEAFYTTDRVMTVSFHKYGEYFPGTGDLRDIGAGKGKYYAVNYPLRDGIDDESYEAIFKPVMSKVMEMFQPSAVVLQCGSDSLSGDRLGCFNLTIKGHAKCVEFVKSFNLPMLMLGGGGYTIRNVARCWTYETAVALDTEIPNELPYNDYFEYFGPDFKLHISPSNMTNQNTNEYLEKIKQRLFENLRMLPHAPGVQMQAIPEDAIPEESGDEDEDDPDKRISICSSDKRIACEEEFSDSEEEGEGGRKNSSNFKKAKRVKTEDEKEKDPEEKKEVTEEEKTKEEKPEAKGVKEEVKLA
Chain of Histone deacetylase 2 (Mus musculus) (P70288 whole entry, the tested form may be a part): as the sequence (Q92769 whole entry, the tested form may be a part) above, with V289A, T477P, T480A counted along it
Chain of Histone deacetylase 4 (P56524 whole entry): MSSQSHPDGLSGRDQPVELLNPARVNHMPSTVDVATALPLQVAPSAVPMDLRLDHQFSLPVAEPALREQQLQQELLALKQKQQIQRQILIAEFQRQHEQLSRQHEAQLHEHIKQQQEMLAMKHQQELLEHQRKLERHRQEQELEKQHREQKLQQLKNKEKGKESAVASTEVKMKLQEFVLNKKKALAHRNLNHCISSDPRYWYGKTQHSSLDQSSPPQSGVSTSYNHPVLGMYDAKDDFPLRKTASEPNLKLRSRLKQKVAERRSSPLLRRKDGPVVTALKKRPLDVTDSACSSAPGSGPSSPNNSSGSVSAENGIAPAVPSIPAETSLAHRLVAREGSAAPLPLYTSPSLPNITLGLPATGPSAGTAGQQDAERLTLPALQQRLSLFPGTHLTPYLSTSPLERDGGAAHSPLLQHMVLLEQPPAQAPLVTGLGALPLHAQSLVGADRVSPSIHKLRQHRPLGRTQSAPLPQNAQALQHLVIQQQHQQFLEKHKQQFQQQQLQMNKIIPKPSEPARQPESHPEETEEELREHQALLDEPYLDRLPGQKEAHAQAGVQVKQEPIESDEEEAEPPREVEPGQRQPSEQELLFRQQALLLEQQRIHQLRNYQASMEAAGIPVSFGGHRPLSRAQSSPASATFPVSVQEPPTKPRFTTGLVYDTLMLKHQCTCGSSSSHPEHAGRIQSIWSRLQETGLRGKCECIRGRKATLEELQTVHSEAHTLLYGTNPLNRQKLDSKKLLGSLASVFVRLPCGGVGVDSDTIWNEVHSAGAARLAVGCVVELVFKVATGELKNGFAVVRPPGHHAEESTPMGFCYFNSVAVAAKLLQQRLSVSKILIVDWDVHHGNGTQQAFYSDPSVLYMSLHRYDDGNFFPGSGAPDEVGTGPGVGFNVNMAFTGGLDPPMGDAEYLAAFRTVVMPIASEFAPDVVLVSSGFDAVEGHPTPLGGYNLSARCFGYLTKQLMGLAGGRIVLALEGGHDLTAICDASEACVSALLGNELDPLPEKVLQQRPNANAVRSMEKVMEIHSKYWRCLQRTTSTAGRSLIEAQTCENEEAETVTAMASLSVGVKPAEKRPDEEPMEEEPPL

Nc1ccccc1NC(=O)c1ccc(CNC(=O)OC2CCN(S(=O)(=O)c3c(F)c(F)c(F)c(F)c3F)CC2)cc1
Activity (MV4-11 [1]): 23.54%
Activity (MV4-11 [2]): 4.57%
inhibition [3]: Active
Activity (Histone deacetylase 2 [4]): Active
IC50 (Histone deacetylase 1): 242 nM
IC50 (Histone deacetylase 2 [5]): 808 nM
IC50 (Histone deacetylase 2 [6]): 154 nM
IC50 (Histone deacetylase 3): 143 nM
IC50 (Histone deacetylase 8): > 10000 nM
IC50 (Histone deacetylase 4): > 10000 nM
IC50 (Histone deacetylase 5): > 10000 nM
IC50 [7]: > 10000 nM
IC50 (Histone deacetylase 11): > 2000 nM

From ChEMBL document CHEMBL5375983, “Discovery of YSR734: A Covalent HDAC Inhibitor with Cellular Activity in Acute Myeloid Leukemia and Duchenne Muscular Dystrophy” (J Med Chem, 2023)
